Measurements published in US20220395553A1, “CXCR4 ANTAGONIST PEPTIDES” (COHBAR, INC., priority 2019, published 2022).
Square brackets hold non-standard residues; d marks the D form. Peptide text beside a SMILES is read from it.

Columns and labels:
Rat H-4-II-E Cells = experiment: Cell proliferation, BrdU incorporation; assay type: cell-based; conditions: peptide 10 μM, 18-20 hours, relative to 0.1% DMSO control
Experimental: The effect of the peptides on cell proliferation can be assessed using an assay of BrdU incorporation in cultured cells. Peptides were initially prepared as 10 mM stock in DMSO and tested at a final concentration of 10 μM (0.1% DMSO). BrdU Cell Proliferation Assay kit was purchased from Cell Signaling Technology. H-4-II-E rat liver hepatoma cell line was purchased from American Type Culture Collection (Manassas, Va.). H-4-II-E cells were grown in DMEM supplemented with 10% FBS with 100 IU/ml penicillin and 100 μg/ml streptomycin. Cultures were maintained at 37° C. in a humidified atmosphere of 5% CO2/95% air. H-4-II-E cells were seeded at 20,000 cells per well on 96-well plates. The next day cells were incubated with test peptides at 10 μM in 0.1% DMSO and maintained at 37° C. in a humidified atmosphere of 5% CO2/95% air for 18-20 hours. Cell proliferation was determined using a BrdU Cell Proliferation Assay kit (Cell Signaling Technology) according to the manufacturer's instructions. Absorption for each sample well on the plate was measured using a Cytation 3 plate reader at 450 nm (BioTek, Winooski, Vt.). Activity was calculated relative to 0.1% DMSO untreated control.

[1] = tested on: A172 human brain glioblastoma cell line; experiment: Caspase 3/7 activity (Caspase-Glo 3/7) in cultured cells; assay type: cell-based; conditions: peptide 10 μM, 18-20 hours, relative to 0.1% DMSO control
Experimental: The effect of the peptides on cell death/survival can be assessed using a caspase-3/7 assay in cultured cells. Peptides were dissolved at 10 mM in DMSO as stock solutions for use at a final concentration of 10 μM. […] Caspase-Glo 3/7 Assay Reagent was purchased from Promega (Madison, Wis.). A172 human brain glioblastoma cell line was purchased from American Type Culture Collection (Manassas, Va.). A172 cells were grown in DMEM supplemented with 10% FBS with 100 IU/ml penicillin and 100 μg/ml streptomycin. Cultures were maintained at 37° C. in a humidified atmosphere of 5% CO2/95% air. A172 cells were seeded at 8,000 cells per well on 96-well plates. […] Caspase 3/7 activity was determined using a Caspase-Glo 3/7 Assay kit (Promega) according to the manufacturer's instructions. Luminescence for each sample well on the plate was measured using a Cytation 3 plate reader (BioTek, Winooski, Vt.). Activity was calculated relative to 0.1% DMSO control.

Jurkat cells = experiment: CXCL12 mediated cell migration, Jurkat cells; assay type: cell-based, human; conditions: 1.1 μM test article, 100 ng/ml CXCL12, 1 hour
Procedure, shortened: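 Jurkat cells in serum-free RPMI with 0.5% BSA, 250,000 per upper chamber of a 5 μm Transwell, with peptides at 1.1 μM final. Migration toward CXCL12 ran 1 h at 37 °C in 5% CO2. Cells reaching the lower chamber quantified by ATP luminescence (CellTiter-Glo 2.0).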

human CXCR4 [2] = target: T1, human CXCR4 (Homo sapiens, UniProt P61073); experiment: Inhibition of β-Arrestin recruitment, single concentration (Example 18); assay type: cell-based; set-up: host or cells: C2C12 (mouse myoblast) CXCR4 β-Arrestin PathHunter cell line; conditions: peptide 1 μM, […] CXCL12 (EC80), C2C12 CXCR4 β-Arrestin cells
T1 sequence (P61073 whole entry): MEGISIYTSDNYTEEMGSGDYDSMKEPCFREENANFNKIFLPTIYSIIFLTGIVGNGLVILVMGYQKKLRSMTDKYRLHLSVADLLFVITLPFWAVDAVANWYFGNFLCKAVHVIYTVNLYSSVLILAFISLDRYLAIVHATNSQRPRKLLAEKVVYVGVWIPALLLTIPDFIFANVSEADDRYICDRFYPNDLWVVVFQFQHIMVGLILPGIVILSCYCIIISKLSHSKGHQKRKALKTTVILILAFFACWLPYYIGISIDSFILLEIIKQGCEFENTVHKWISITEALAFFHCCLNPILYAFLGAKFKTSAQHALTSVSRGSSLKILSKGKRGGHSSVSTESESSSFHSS
Experimental: Peptides were initially prepared as 1 mM stock in DMSO and tested at a final concentration of 1 μM (0.1% DMSO). C2C12 CXCR4 β-Arrestin cells were seeded onto 384-well plates in standard medium. After overnight culture, the medium was replaced with buffer containing 1 μM peptide and pre-incubated for 30 min at 37° C. […] At the end of the 90 min incubation period, β-Arrestin recruitment in response to various treatments was quantified using a chemiluminescent complementation reporter assay to measure association of tagged human […] (ProLink tag) and tagged β-Arrestin (Enzyme Acceptor tag).

human CXCR4 [3] = target: T1, human CXCR4; experiment: IC50 for CXCR4/CXCL12 ligand binding, HTRF format (Example 24); set-up: host or cells: HEK293 (Tag-lite CXCR4 cells, frozen aliquots, transient expression)
human CXCR4 [4] = target: T1, human CXCR4; experiment: IC50 for inhibition of β-Arrestin recruitment (Example 19); assay type: cell-based; set-up: host or cells: C2C12 (mouse myoblast) CXCR4 β-Arrestin PathHunter cell line
Source text: C2C12 CXCR4 β-Arrestin cells were seed onto 384-well plates in standard medium.

SMILES: CSCC[C@H](N)C(=O)N[C@@H](CC(C)C)C(=O)N[C@@H](CCCNC(=N)N)C(=O)N[C@@H](CCCNC(=N)N)C(=O)N[C@@H](Cc1ccc(O)cc1)C(=O)N[C@@H](Cc1c[nH]cn1)C(=O)N[C@@H](Cc1c[nH]cn1)C(=O)N[C@@H](CO)C(=O)N[C@H](C(=O)N[C@@H](CCCNC(=N)N)C(=O)N[C@@H](CO)C(=O)N[C@@H](CO)C(=O)N[C@@H](CC(C)C)C(=O)N[C@@H](CCCNC(=N)N)C(=O)N1CCC[C@H]1C(=O)N[C@@H](Cc1ccc(O)cc1)C(=O)N[C@H](C(=O)N[C@@H](CCCCN)C(=O)O)[C@@H](C)O)C(C)C [compound 2] (H-MLRRYHHSVRSSLRPYTK-OH; N-terminus and C-terminus assumed)
- BrdU Incorporation, Percent of Control (Rat H-4-II-E Cells): 123.6%
- Caspase 3/7 Activity, Percent of Control Activity [1]: 96.7%
- Percent Inhibition of CXCL12 Mediated Migration (1.1 μM Test Article) (Jurkat cells): 4%

SMILES: CC(C)C[C@H](NC(=O)[C@H](CO)NC(=O)[C@H](CO)NC(=O)[C@H](CCCNC(=N)N)NC(=O)[C@@H](NC(=O)[C@H](CO)NC(=O)[C@H](Cc1c[nH]cn1)NC(=O)[C@H](Cc1c[nH]cn1)NC(=O)[C@H](Cc1ccc(O)cc1)NC(=O)[C@H](CCCNC(=N)N)NC(=O)[C@H](CCCNC(=N)N)NC(=O)[C@@H](N)CC(C)C)C(C)C)C(=O)N[C@@H](CCCNC(=N)N)C(=O)N1CCC[C@H]1C(=O)N[C@@H](Cc1ccc(O)cc1)C(=O)N[C@H](C(=O)N[C@@H](CCCCN)C(=O)O)[C@@H](C)O [compound 3] (H-LRRYHHSVRSSLRPYTK-OH; N-terminus and C-terminus assumed)
- BrdU Incorporation, Percent of Control (Rat H-4-II-E Cells): 130.3%
- Percent Inhibition of CXCL12 Mediated CXCR4 Activity (human CXCR4 [2]): 113.8%
- Caspase 3/7 Activity, Percent of Control Activity [1]: 121.4%
- Percent Inhibition of CXCL12 Mediated Migration (1.1 μM Test Article) (Jurkat cells): 66%

SMILES: CC(C)C[C@H](NC(=O)[C@H](CO)NC(=O)[C@H](CO)NC(=O)[C@H](CCCNC(=N)N)NC(=O)[C@@H](NC(=O)[C@H](CO)NC(=O)[C@H](Cc1c[nH]cn1)NC(=O)[C@H](Cc1c[nH]cn1)NC(=O)[C@H](Cc1ccc(O)cc1)NC(=O)[C@H](CCCNC(=N)N)NC(=O)[C@H](CCC(=O)O)NC(=O)[C@@H](N)CC(C)C)C(C)C)C(=O)N[C@@H](CCCNC(=N)N)C(=O)N1CCC[C@H]1C(=O)N[C@@H](Cc1ccc(O)cc1)C(=O)N[C@H](C(=O)N[C@@H](CCCCN)C(=O)O)[C@@H](C)O [compound 4] (H-LERYHHSVRSSLRPYTK-OH; N-terminus and C-terminus assumed)
- BrdU Incorporation, Percent of Control (Rat H-4-II-E Cells): 114.4%
- IC50 (human CXCR4 [3]): 6 nM
- Caspase 3/7 Activity, Percent of Control Activity [1]: 107.7%
- Percent Inhibition of CXCL12 Mediated Migration (1.1 μM Test Article) (Jurkat cells): 77%

SMILES: CC(C)C[C@H](NC(=O)[C@H](CO)NC(=O)[C@H](CO)NC(=O)[C@H](CCCNC(=N)N)NC(=O)[C@@H](C)NC(=O)[C@H](CO)NC(=O)[C@H](Cc1c[nH]cn1)NC(=O)[C@H](Cc1c[nH]cn1)NC(=O)[C@H](Cc1ccc(O)cc1)NC(=O)[C@H](CCCNC(=N)N)NC(=O)[C@H](CCC(=O)O)NC(=O)[C@@H](N)CC(C)C)C(=O)N[C@@H](CCCNC(=N)N)C(=O)N1CCC[C@H]1C(=O)N[C@@H](Cc1ccc(O)cc1)C(=O)N[C@H](C(=O)O)[C@@H](C)O [compound 5] (H-LERYHHS[dA]RSSLRPYT-OH; N-terminus and C-terminus assumed)
- BrdU Incorporation, Percent of Control (Rat H-4-II-E Cells): 131.1%
- IC50 (human CXCR4 [3]): 33 nM
- IC50 (human CXCR4 [4]): 121 nM
- Caspase 3/7 Activity, Percent of Control Activity [1]: 104.7%
- Percent Inhibition of CXCL12 Mediated Migration (1.1 μM Test Article) (Jurkat cells): 46%
